In PMC4145316, “Cytotoxic and Apoptosis-Inducing Activity of Triterpene Glycosides from Holothuria scabra and Cucumaria frondosa against HepG2 Cells” (Marine Drugs, 2014):

What was measured:
[1] = test system: human cervical cancer (HeLa) cells; assay: MTT cytotoxicity assay, HeLa cells; type: cell-based; conditions: means ± SD (n = 3)
Procedure: Human hepatoma (HepG2), human cervical cancer (HeLa), human leukemia (K562) and human liver (HL-7702) cells were obtained by Shanghai Institute of Biochemistry and Cell Biology, and maintained in the logarithmic phase of growth in RPMI-1640 complete medium supplemented with 2 mM L-glutamine (Sigma Chemical Co., Saint Louis, MO, USA), 100 IU/mL penicillin, 100 μg/mL streptomycin and 10% FCS at 37 °C under humidified air with 5% CO2.
The effect of compounds 1–13 on the viability of HepG2, HeLa, K562 and HL-7702 cells was determined by MIT assay as described previously. Briefly, the tumor and normal cells were seeded at 1 × 10^4 cells/well in a 96-well microtiter plate and incubated at 37 °C in a humidified atmosphere with 5% CO2. After 24 h, compounds 1–13, the positive drug CDDP or RPMI-1640 medium were added into each well, and the plates were incubated at 37 °C for the indicated time. Each concentration was repeated four wells. 50 μL of MTT solution (2 mg/mL) was added to each well 4 h before incubation end, and incubated further for 4 h. The plates were centrifuged (1400× g, 5 min) and the untransformed MTT was removed carefully by pipetting. To each well, 150 μL of DMSO was added and the absorbance was evaluated in an ELISA reader at 570 nm after 15 min. The inhibitory rates and 50% inhibitory concentrations (IC50) values towards cell viability were calculated by NDST software. Each test was performed in triplicate.

[2] = test system: HepG2 cells; assay: Mitochondrial transmembrane potential, JC-1 staining; type: cell-based, human; conditions: 2.5, 2.75 and 3 μg/mL for 6 h
Procedure: Therefore, we measured the Δψm in 1-treated HepG2 cells and control cells using JC-1 staining, and the results were shown in Figure 4. The aggregated JC-1 within normal mitochondria in HepG2 cells was dispersed to the monomeric form (green fluorescence) after treatment with 1 for 6 h. […] After treatment with 1 at 3 μg/mL, the red fluorescence disappeared and pure green fluorescence only occurred in HepG2 cells.
After treatment with 1 at the concentration of 0, 2.5, 2.75 and 3 μg/mL for 6 h, the cells were harvested, washed twice with PBS, and then incubated with 500 μL of JC-1 staining solution (5 μg/mL) at 37 °C for 30 min [43]. The stained cells were rinsed twice with PBS and resuspended in medium. The Δψm was monitored by determining the relative amounts of dual emissions from mitochondrial JC-1 monomers (green fluorescence) to aggregates (red fluorescence) using an Olympus fluorescent microscope under Argon-ion 488 nm laser excitation.

[3] = test system: Bcl-2 and Bax mRNA in HepG2 cells; assay: RT-PCR, Bcl-2/Bax mRNA expression ratio; type: cell-based, human; conditions: time- and concentration-dependent
Source text: The Bcl-2 family members can alter the permeability of mitochondrial membrane, and release cytochrome c or activate caspase cascade. There are two classes of regulatory proteins in the Bcl-2 family that have opposite effects on apoptosis: The anti-apoptotic members (Bcl-2 and Bcl-XL) protect cells against some forms of apoptosis, whereas the pro-apoptotic members (Bax and Bcl-xS) promote programmed cell death. As decrease of the ratio between anti-apoptotic gene Bcl-2 and pro-apoptotic gene Bax mRNA expression is widely considered as a hallmark of apoptosis, the expression level of Bcl-2 and Bax mRNA in HepG2 cells were first detected.
Figure 5 Effect of 1 on the ratio of expression level between Bcl-2 and Bax mRNA in HepG2 cells. HepG2 cells were incubated with 1 at the various concentrations for the different time. The mRNA expression levels of β-actin, Bcl-2, and Bax were detected by RT-PCR using specific primers. The values are presented as means ± SD (n = 3). […]
Total RNA was extracted with TRIzol reagent (Invitrogen, Grand Island, NY, USA) according to the manufacturer’s instructions, and reverse transcription was performed as previously. […] Semi-quantitative RT-PCR was performed using β-actin as an internal control to normalize gene expression for the PCR templates. […] The size of the amplified fragments was determined by comparison with a standard DNA marker.

[4] = test system: Top2a; design: method as in PMID 19773249; conditions: interference in DNA binding, impairment of Top2-mediated DNA cleavage and relegation; cited from earlier work

## COC1C(O)C(CO)OC(OC2C(O)C(CO)OC(OC3C(C)OC(OC4C(OC5CCC6(C)C7=CC(O)C89C(=O)OC(C)(CCCC(C)C)C8(O)CCC9(C)C7CCC6C5(C)C)OCC(OS(=O)(=O)O)C4O)C(O)C3O)C2O)C1O.[Na+] (stereo not shown) [Echinoside A (1), Echinoside A]
[1]
  IC50 (μg/mL) HeLa: 1.25 ± 0.16 µg/mL
[2]
  mitochondrial transmembrane potential (Δψm): significantly decreased
[3]
  ratio of Bcl-2/Bax mRNA expression: significantly decreased
[4]
  Top2 inhibition: non-intercalative Top2 inhibitor
